Measurements published in PMC12081876, “Identification of PTGR2 inhibitors as a new therapeutic strategy for diabetes and obesity” (EMBO Molecular Medicine, 2025).
Values joined by “and” are separate entries in the source; they are usually repeats but may differ in a detail not shown here. Identical values can stand only once.

Columns and labels:
[1] = system: differentiated 3T3-L1 adipocytes; experiment: Insulin-stimulated glucose uptake assay by (3H)2-deoxyglucose; type: cell-based, mouse; conditions: differentiated 3T3-L1 adipocytes
[2] = system: HFHSD-fed obese C57BL6/J mice; experiment: Body weight / diet-induced obesity in HFHSD-fed mice; type: in vivo, mouse; conditions: for Body weight, Avg: BPRPT0245 100 mg/kg/day (Figure 5J); for Body weight, Avg / Body weight, Average / Body weight (individual mouse): in g (unit assumed); for Body weight, Average / Body weight (individual mouse): Figure 5J; for Body weight, Average: 100 mg/kg/day; for Body weight (individual mouse): BPRPT0245 group
[3] = system: HFHSD-fed obese C57BL6/J mice; experiment: Intraperitoneal glucose tolerance test (ipGTT); type: in vivo, mouse; set-up: Figure 2H Average (glucose, ipGTT) / ipGTT / ipGTT glucose, Average / Blood glucose during glucose tolerance test (Figure 5L), Average: unit not given here; conditions: for ipGTT glucose, Average: BPRPT0245 100 mg/kg/day, group average (Figure 5L); for ipGTT glucose, individual mice: individual mouse values (Figure 5L, sheet BPRPT0245), in mg/dL (unit assumed)
Protocol: (§1) Glucose tolerance was evaluated by the oral (OGTT) and intraperitoneal glucose tolerance test (ipGTT) after a 6-h fast. For the OGTT, glucose water (1 mg/g) was given by oral gavage, and tail blood glucose was measured with a glucometer (ACCU-CHEK Performa, Roche) at 0, 15, 30, 45, 60, 90, and 120 min. For the ipGTT, tail blood glucose was measured at 0, 15, 30, 45, 60, 90, and 120 min after intraperitoneal injection of glucose water (1 mg/g). For the insulin tolerance test (ITT), mice were fasted for 4 h and then injected intraperitoneally with 1 U/kg of insulin (Humulin R, Eli Lilly). Tail blood glucose was measured at 0, 15, 30, 45, 60, 90, 120, and 180 min.

[4] = system: HFHSD-fed obese C57BL6/J mice; experiment: Insulin tolerance test (ITT); type: in vivo, mouse; set-up: Figure 2I Average (glucose, ITT) / ITT / ITT glucose, Average / Blood glucose during insulin tolerance test (Figure 5M), Average: unit not given here; conditions: for ITT glucose, Average: BPRPT0245 100 mg/kg/day, group average (Figure 5M); for ITT glucose, individual mice: individual mouse values (Figure 5M, sheet BPRPT0245), in mg/dL (unit assumed)
Protocol: as §1

[5] = 100 mg/kg/day oral, HFHSD-fed mice, vs vehicle

Cc1[nH]c2nc(C(C)N3CCN(c4ccccc4)CC3)nn2c(=O)c1Cc1ccc(F)cc1 (stereo not shown) [BPRPT0245] was tested, and the insulin-stimulated glucose uptake [1] was “augmented insulin-stimulated glucose uptake of differentiated 3T3-L1 adipocytes”, the “diet-induced obesity (body weight)” value [2, 5] was “significantly prevented diet-induced obesity” and the “Body weight, Avg” value ([2]; time point 0) was 30.59. The “Body weight, Avg” value ([2]; time point 1) was 31.2, the “Body weight, Avg” value ([2]; time point 2) was 31.673 and the “Body weight, Avg” value ([2]; time point 3) was 32.167. For the same molecule, the “Body weight, Avg” value ([2]; time point 4) was 32.92, the “Body weight, Avg” value ([2]; time point 5) was 32.837 and the “Body weight, Avg” value ([2]; time point 6) was 33.673. The “Body weight, Avg” value ([2]; time point 7) was 33.323, the “Body weight, Avg” value ([2]; time point 8) was 33.923 and the “Body weight, Avg” value ([2]; time point 9) was 34.59. The “Body weight, Avg” value ([2]; time point 10) was 35.623, the “Body weight, Avg” value ([2]; time point 11) was 36.193 and the “Body weight, Avg” value ([2]; time point 12) was 37.113. For the same molecule, the “Body weight, Avg” value ([2]; time point 13) was 36.957, the “Body weight, Avg” value ([2]; time point 14) was 38.33 and the “Body weight, Avg” value ([2]; time point 15) was 38.607. For the same molecule, the “Body weight, Avg” value ([2]; time point 16) was 39.303, the “Body weight, Avg” value ([2]; time point 17) was 40.533 and the “Body weight, Avg” value ([2]; time point 18) was 40.933. The “Body weight, Avg” value ([2]; time point 19) was 42.11, the “Body weight, Avg” value ([2]; time point 20) was 41.483 and the “Body weight, Avg” value ([2]; time point 21) was 42.933. For the same molecule, the “Body weight, Avg” value ([2]; time point 22) was 43.33, the “Body weight, Avg” value ([2]; time point 23) was 44.06 and the “Body weight, Avg” value ([2]; time point 24) was 44.36. The “Body weight, Avg” value ([2]; time point 25) was 45.28, the “Body weight, Average” value ([2]; week 0) was 30.59 and the “Body weight (individual mouse)” value ([2]; week 0) was 30 and 33.8 and 29.8 and 28.35. For the same molecule, the “Body weight, Average” value ([2]; week 1) was 31.2, the “Body weight (individual mouse)” value ([2]; week 1) was 30.45 and 34.45 and 30.15 and 29.55 and the “Body weight, Average” value ([2]; week 2) was 31.6733. The “Body weight (individual mouse)” value ([2]; week 2) was 31.05 and 34.25 and 30.6 and 30.25, the “Body weight, Average” value ([2]; week 3) was 32.1667 and the “Body weight (individual mouse)” value ([2]; week 3) was 31.8 and 34.4 and 30.9 and 31.9. For the same molecule, the “Body weight, Average” value ([2]; week 4) was 32.92, the “Body weight (individual mouse)” value ([2]; week 4) was 32.8 and 36.5 and 31.8 and 33.15 and the “Body weight, Average” value ([2]; week 5) was 32.8367. The “Body weight (individual mouse)” value ([2]; week 5) was 34.2 and 36 and 31.6, the “Body weight, Average” value ([2]; week 6) was 33.6733 and the “Body weight (individual mouse)” value ([2]; week 6) was 34.5 and 37.15 and 31.9. For the same molecule, the “Body weight, Average” value ([2]; week 7) was 33.3233, the “Body weight (individual mouse)” value ([2]; week 7) was 31.45 and 36.9 and 31.75 and the “Body weight, Average” value ([2]; week 8) was 33.9233. For the same molecule, the “Body weight (individual mouse)” value ([2]; week 8) was 34.8 and 36.35 and 31.55, the “Body weight, Average” value ([2]; week 9) was 34.59 and the “Body weight (individual mouse)” value ([2]; week 9) was 35.75 and 38 and 32.05 and 35.25. For the same molecule, the “Body weight, Average” value ([2]; week 10) was 35.6233, the “Body weight (individual mouse)” value ([2]; week 10) was 38.1 and 37.65 and 32.65 and 35.65 and the “Body weight, Average” value ([2]; week 11) was 36.1933. The “Body weight (individual mouse)” value ([2]; week 11) was 39.55 and 38.45 and 32.7 and 35.65, the “Body weight, Average” value ([2]; week 12) was 37.1133 and the “Body weight (individual mouse)” value ([2]; week 12) was 40.35 and 39.35 and 33.6 and 37.1. For the same molecule, the “Body weight, Average” value ([2]; week 13) was 36.9567, the “Body weight (individual mouse)” value ([2]; week 13) was 40.15 and 39.25 and 33.15 and 37.05 and the “Body weight, Average” value ([2]; week 14) was 38.33. For the same molecule, the “Body weight (individual mouse)” value ([2]; week 14) was 42.7 and 39.9 and 33.45 and 38.65, the “Body weight, Average” value ([2]; week 15) was 38.6067 and the “Body weight (individual mouse)” value ([2]; week 15) was 43.6 and 39.65 and 33.2 and 38.2. For the same molecule, the “Body weight, Average” value ([2]; week 16) was 39.3033, the “Body weight (individual mouse)” value ([2]; week 16) was 45.5 and 40.05 and 32.8 and 39.05 and the “Body weight, Average” value ([2]; week 17) was 40.5333. The “Body weight (individual mouse)” value ([2]; week 17) was 47.45 and 41.6 and 33.85 and 39.8, the “Body weight, Average” value ([2]; week 18) was 40.9333 and the “Body weight (individual mouse)” value ([2]; week 18) was 47.8 and 41.55 and 34.1 and 40.8. For the same molecule, the “Body weight, Average” value ([2]; week 19) was 42.11, the “Body weight (individual mouse)” value ([2]; week 19) was 50.9 and 42.65 and 34.9 and 42.2 and the “Body weight, Average” value ([2]; week 20) was 41.4833. The “Body weight (individual mouse)” value ([2]; week 20) was 50.45 and 41.95 and 34.25 and 41.75, the “Body weight, Average” value ([2]; week 21) was 42.9333 and the “Body weight (individual mouse)” value ([2]; week 21) was 52.5 and 42.9 and 35.35 and 43.3. For the same molecule, the “Body weight, Average” value ([2]; week 22) was 43.33, the “Body weight (individual mouse)” value ([2]; week 22) was 53.9 and 43.35 and 35.75 and 44.95 and the “Body weight, Average” value ([2]; week 23) was 44.06. The “Body weight (individual mouse)” value ([2]; week 23) was 55.05 and 46.1 and 36.75 and 45.25, the “Body weight, Average” value ([2]; week 24) was 44.36 and the “Body weight (individual mouse)” value ([2]; week 24) was 50.35 and 46.35 and 37 and 46.4. For the same molecule, the “Body weight, Average” value ([2]; week 25) was 45.28, the “Body weight (individual mouse)” value ([2]; week 25) was 54.2 and 47.6 and 36.05 and 48.2 and the “ipGTT glucose, Average” value ([3]; 0 minute) was 153.667. For the same molecule, the “ipGTT glucose, individual mice” value ([3]; 0 minute) was 129 and 127 and 202 and 168 and 162 and 152 and 179 and 142 and 147 and 175 and 150 and 108 and 169, the “glucose tolerance (ipGTT)” value [3, 5] was “improved glucose tolerance” and the “ipGTT glucose, Average” value ([3]; 15 minute) was 305. The “ipGTT glucose, individual mice” value ([3]; 15 minute) was 325 and 328 and 302 and 300 and 251 and 345 and 316 and 291 and 297 and 290 and 312 and 319 and 271 and 303, the “ipGTT glucose, Average” value ([3]; 30 minute) was 285.933 and the “ipGTT glucose, individual mice” value ([3]; 30 minute) was 318 and 250 and 316 and 269 and 323 and 308 and 260 and 273 and 295 and 280 and 325 and 283 and 289 and 215 and 285. For the same molecule, the “ipGTT glucose, Average” value ([3]; 45 minute) was 242.333, the “ipGTT glucose, individual mice” value ([3]; 45 minute) was 261 and 181 and 275 and 209 and 208 and 318 and 231 and 278 and 227 and 225 and 336 and 288 and 173 and 200 and the “ipGTT glucose, Average” value ([3]; 60 minute) was 219.733. The “ipGTT glucose, individual mice” value ([3]; 60 minute) was 262 and 155 and 167 and 252 and 207 and 264 and 223 and 275 and 201 and 277 and 228 and 194 and 179 and 205, the “ipGTT glucose, Average” value ([3]; 90 minute) was 192.133 and the “ipGTT glucose, individual mice” value ([3]; 90 minute) was 204 and 144 and 134 and 174 and 173 and 260 and 232 and 213 and 160 and 193 and 231 and 169 and 117 and 218. The “ipGTT glucose, Average” value ([3]; 120 minute) was 185.4, the “ipGTT glucose, individual mice” value ([3]; 120 minute) was 218 and 166 and 140 and 179 and 201 and 221 and 215 and 198 and 168 and 199 and 217 and 208 and 174 and 111 and the “ITT glucose, Average” value ([4]; 0 minutes) was 210.867. The “ITT glucose, individual mice” value ([4]; 0 minutes) was 210 and 207 and 221 and 237 and 223 and 175 and 211 and 215 and 171 and 203 and 242 and 227 and 190, the “insulin sensitivity (ITT)” value [4, 5] was “improved” and the “ITT glucose, Average” value ([4]; 15 minutes) was 143.067. For the same molecule, the “ITT glucose, individual mice” value ([4]; 15 minutes) was 156 and 120 and 180 and 189 and 164 and 136 and 112 and 129 and 113 and 144 and 148 and 135 and 145, the “ITT glucose, Average” value ([4]; 30 minutes, 100 mg/kg/day) was 94.067 and 94.0667 and the “ITT glucose, individual mice” value ([4]; 30 minutes) was 106 and 97 and 111 and 100 and 102 and 82 and 74 and 96 and 105 and 107 and 84 and 69 and 88. For the same molecule, the “ITT glucose, Average” value ([4]; 45 minutes, 100 mg/kg/day) was 78.667 and 78.6667, the “ITT glucose, individual mice” value ([4]; 45 minutes) was 95 and 77 and 90 and 86 and 83 and 78 and 69 and 70 and 74 and 85 and 61 and 71 and the “ITT glucose, Average” value ([4]; 60 minutes) was 69.8. The “ITT glucose, individual mice” value ([4]; 60 minutes) was 65 and 78 and 72 and 69 and 82 and 52 and 61 and 71 and 75 and 90 and 68 and 59, the “ITT glucose, Average” value ([4]; 90 minutes, 100 mg/kg/day) was 59.667 and 59.6667 and the “ITT glucose, individual mice” value ([4]; 90 minutes) was 57 and 51 and 69 and 75 and 72 and 54 and 65 and 46 and 45 and 59 and 84 and 67 and 53. For the same molecule, the “ITT glucose, Average” value ([4]; 120 minutes, 100 mg/kg/day) was 71.467 and 71.4667, the “ITT glucose, individual mice” value ([4]; 120 minutes) was 61 and 65 and 87 and 74 and 76 and 66 and 70 and 69 and 114 and 57 and 56 and the “ITT glucose, Average” value ([4]; 180 minutes, 100 mg/kg/day) was 90.933 and 90.9333. The “ITT glucose, individual mice” value ([4]; 180 minutes) was 83 and 84 and 113 and 70 and 94 and 69 and 85 and 73 and 98 and 104 and 130 and 99 and 76.
